According to patent US12384787B2, “Fused heterocyclic compounds and their use as pest control agents” (PI INDUSTRIES LTD., priority 2019, dated 2025):

Columns and labels:
Format in all cases: in vivo
Plutella xylostella = Plutella xylostella leaf dip method (cabbage leaves); conditions: foliar, second instar larvae, 72 h after release, dead and moribund combined, compared to untreated control, read-out: Percent mortality
Experimental: The leaf dip method was used for testing, wherein the required quantity of the compounds were weighed and dissolved in a surfactant solution, kept on a Vortex at 2000 rpm with zirconia beads for 90 min for proper mixing and then diluted with 0.01% Triton-X solution to the desired test concentration. Cabbage leaves were dipped in the solution for 10 seconds, shade dried for 20 min and then transferred to bioassay trays. A single second instar larva was released into each bioassay tray cell and the tray was covered with a lid. The bio-assay trays were kept under laboratory conditions at a temperature of 25° C. and relative humidity of 70%. Observations on dead, moribund and living larvae were recorded at 72 h after the release. Percent mortality was calculated by combining dead and moribund larvae and comparing the result to the one of the untreated control.

Myzus persicae = Myzus persicae leaf dip method (capsicum leaves); conditions: foliar, third instar nymphs, 72 h after release, dead and moribund combined, compared to untreated control, read-out: Percent mortality
Experimental: The leaf dip method was used for testing, wherein the required quantity of the test compounds were weighed and dissolved in a surfactant solution, kept on a Vortex at 2000 rpm with zirconia beads for 90 min for proper mixing and then diluted with 0.01% Triton-X solution to the desired test concentration. Capsicum leaves were dipped in the solution for 10 seconds, shade dried for 20 min and then the leaves were kept in glass units with the petiole dipped in water. Known numbers of third instar nymphs were released into the glass units and then kept in the plant growth chambers at a temperature of 25° C. and relative humidity of 70%. Observations on dead, moribund and living nymphs were recorded at 72 h after the release. Percent mortality was calculated by combining dead and moribund nymphs and comparing the result to the one of the untreated control. The compounds 9 14 16 22 23 50 71 104 and 131 were showing efficacy higher than 70 percent mortality @ 300 PPM.

Bemisia tabaci = Bemisia tabaci leaf dip method (cotton leaves); conditions: foliar, freshly emerged adults, 72 h after release, dead and moribund combined, compared to untreated control, read-out: Percent mortality
Experimental: The leaf dip method was used for testing, wherein the required quantity of the test compounds were weighed and dissolved in surfactant solution, kepton a Vortex at 2000 rpm with zirconia beads for 90 min for proper mixing and then diluted with 0.01% Triton-X solution to the desired test concentration. Cotton leaves were dipped in the solution for 10 seconds, shade dried for 20 min and then the leaves were kept in glass units with the petiole dipped in water. Known numbers of freshly emerged adults were released and kept in the plant growth chamber at a temperature of 25° C. and relative humidity of 70%. Observations on dead, moribund and living adults were recorded at 72 h after the release. Percent mortality was calculated by combining dead and moribund adults and comparing the result to the one of the untreated control.

Spodoptera litura = Spodoptera litura diet incorporation method; conditions: third instar larvae, 96 h after release, dead and moribund combined, compared to untreated control, read-out: Percent mortality
Experimental: Diet incorporation method was used, in which the required quantity of test compounds were weighed and dissolved in surfactant solution, kept on vortex for 90 min for proper mixing, then diluted with water to the desired test concentrations. The solutions were incorporated into semi-synthetic diet when the temperature reached approximately 50° C. in the bioassay containers. The diet and solution was stirred thoroughly for properly mixing and was left to cool for 30 min. The solidified diet was cut into equal pieces, and then each piece was transferred into one cell of the bio-assay trays. A single starved third instar larva was released into each of these cells of the bioassay trays and the tray was covered with a lid. The bio-assay trays were kept under laboratory conditions at a temperature of 25° C. and relative humidity of 70%. Observations on dead, moribund and alive larvae were recorded at 96 h after the release of the larvae. Percent mortality was calculated by combining dead and moribund larvae and comparing the result to the one of the untreated control.

Helicoverpa armigera = Helicoverpa armigera diet incorporation method; conditions: third instar larvae, 96 h after release, dead and moribund combined, compared to untreated control, read-out: Percent mortality
Experimental: Diet incorporation method was used, in which the required quantity of test compounds were weighed and dissolved in a surfactant solution, kept on vortex for 90 min for proper mixing, then was diluted with water to the desired test concentrations. The solutions were incorporated into semi-synthetic diet when the temperature reached approximately 50° C. in the bioassay containers. The diet and solution was stirred thoroughly for properly mixing and then left to cool for 30 min. The solidified diet was cut into equal pieces, and then each piece was transferred into one cell of the bio-assay trays. A single third starved instar larva was released into each of these cells of the bioassay trays and each tray was covered with a lid. The bio-assay trays were kept under laboratory conditions at a temperature of 25° C. and relative humidity of 70%. Observations on dead, moribund and alive larvae were recorded at 96 h after the release of the larvae. Percent mortality was calculated by combining dead and moribund larvae and comparing the result to the one of the untreated control.

Row | SMILES | mortality at 300 ppm (Plutella xylostella) | mortality at 300 ppm (Myzus persicae) | mortality at 300 ppm (Bemisia tabaci) | mortality at 300 ppm (Spodoptera litura) | mortality at 300 ppm (Helicoverpa armigera)
1 | CCSc1nn2c(C)cc(C)nc2c1-c1nc2cc(C(F)(F)F)cnc2n1C [Compound 9, 2-(2-(Ethylthio)-5,7-dimethylpyrazolo[1,5-a]pyrimidin-3-yl)-3-methyl-6-(trifluoromethyl)-3H-imidazo[4,5-b]pyridine] | > 70% | > 70% | – | – | –
2 | CCSc1nn2cccnc2c1-c1nc2cc(C(F)(F)F)cnc2n1C [Compound 14, 2-(2-(Ethylthio)pyrazolo[1,5-a]pyrimidin-3-yl)-3-methyl-6-(trifluoromethyl)-3H-imidazo[4,5-b]pyridine] | – | > 70% | – | – | –
3 | CCS(=O)(=O)c1nn2cccnc2c1-c1nc2cc(C(F)(F)F)cnc2n1C [Compound 16, 2-(2-(Ethylsulfonyl)pyrazolo[1,5-a]pyrimidin-3-yl)-3-methyl-6-(trifluoromethyl)-3H-imidazo[4,5-b]pyridine] | – | > 70% | – | – | –
4 | CCSc1nn2cccnc2c1-c1nc2cc(C(F)(F)F)ncc2n1C [Compound 22, 2-(2-(Ethylthio)pyrazolo[1,5-a]pyrimidin-3-yl)-3-methyl-6-(trifluoromethyl)-3H-imidazo[4,5-c]pyridine] | > 70% | > 70% | > 70% | – | –
5 | CCS(=O)(=O)c1nn2cccnc2c1-c1nc2cc(C(F)(F)F)ncc2n1C [Compound 23, 2-(2-(Ethylsulfonyl)pyrazolo[1,5-a]pyrimidin-3-yl)-3-methyl-6-(trifluoromethyl)-3H-imidazo[4,5-c]pyridine] | – | > 70% | – | – | –
6 | CCS(=O)(=O)c1nn2c(-c3cc(Cl)cc(Cl)c3)ccnc2c1-c1nc2cc(C(F)(F)F)cnc2n1C [Compound 26, 2-(7-(3,5-Dichlorophenyl)-2-(ethylsulfonyl)pyrazolo[1,5-a]pyrimidin-3-yl)-3-methyl-6-(trifluoromethyl)-3H-imidazo[4,5-b]pyridine] | > 70% | – | – | > 70% | > 70%
7 | CCS(=O)(=O)c1nn2cc(Cl)cnc2c1-c1nc2cc(C(F)(F)F)cnc2n1C [Compound 50, 2-(6-Chloro-2-(ethylsulfonyl)pyrazolo[1,5-a]pyrimidin-3-yl)-3-methyl-6-(trifluoromethyl)-3H-imidazo[4,5-b]pyridine] | > 70% | > 70% | – | – | –
8 | CCS(=O)(=O)c1nn2cc(Br)cnc2c1-c1nc2cc(C(F)(F)F)cnc2n1C [Compound 71, 2-(6-Bromo-2-(ethylsulfonyl)pyrazolo[1,5-a]pyrimidin-3-yl)-3-methyl-6-(trifluoromethyl)-3H-imidazo[4,5-b]pyridine] | > 70% | > 70% | – | – | –
9 | CCS(=O)(=O)c1nn2cc(-c3ccc(OC(F)(F)F)cc3)cnc2c1-c1nc2cc(C(F)(F)F)cnc2n1C [Compound 83, 2-(2-(Ethylsulfonyl)-6-(4-(trifluoromethoxy)phenyl)pyrazolo[1,5-a]pyrimidin-3-yl)-3-methyl-6-(trifluoromethyl)-3H-imidazo[4,5-b]pyridine] | > 70% | – | – | > 70% | > 70%
10 | CCSc1nn2c(-c3ccc(OC(F)(F)C(F)F)cc3)ccnc2c1-c1nc2cc(C(F)(F)F)cnc2n1C [Compound 87, 2-(2-(Ethylthio)-7-(4-(1,1,2,2-tetrafluoroethoxy)phenyl)pyrazolo[1,5-a]pyrimidin-3-yl)-3-methyl-6-(trifluoromethyl)-3H-imidazo[4,5-b]pyridine] | > 70% | – | – | > 70% | > 70%
11 | CCS(=O)(=O)c1nn2c(-c3ccc(OC(F)(F)C(F)F)cc3)ccnc2c1-c1nc2cc(C(F)(F)F)cnc2n1C [Compound 90, 2-(2-(Ethylsulfonyl)-7-(4-(1,1,2,2-tetrafluoroethoxy)phenyl)pyrazolo[1,5-a]pyrimidin-3-yl)-3-methyl-6-(trifluoromethyl)-3H-imidazo[4,5-b]pyridine] | > 70% | – | – | > 70% | > 70%
12 | CCSc1nn2c(-c3ccc(OC(F)(F)C(F)F)cc3)ccnc2c1-c1nc2cc(C(F)(F)F)ncc2n1C [Compound 93, 2-(2-(Ethylthio)-7-(4-(1,1,2,2-tetrafluoroethoxy)phenyl)pyrazolo[1,5-a]pyrimidin-3-yl)-3-methyl-6-(trifluoromethyl)-3H-imidazo[4,5-c]pyridine] | > 70% | – | – | > 70% | > 70%
13 | CCS(=O)(=O)c1nn2c(-c3cc(F)cc(F)c3)ccnc2c1-c1nc2cc(C(F)(F)F)cnc2n1C [Compound 101, 2-(7-(3,5-Difluorophenyl)-2-(ethylsulfonyl)pyrazolo[1,5-a]pyrimidin-3-yl)-3-methyl-6-(trifluoromethyl)-3H-imidazo[4,5-b]pyridine] | > 70% | – | – | > 70% | > 70%
14 | CCS(=O)(=O)c1nn2c(-c3cc(F)cc(Cl)c3)ccnc2c1-c1nc2cc(C(F)(F)F)cnc2n1C [Compound 103, 2-(7-(3-Chloro-5-fluorophenyl)-2-(ethylsulfonyl)pyrazolo[1,5-a]pyrimidin-3-yl)-3-methyl-6-(trifluoromethyl)-3H-imidazo[4,5-b]pyridine] | > 70% | – | – | > 70% | > 70%
15 | CCS(=O)(=O)c1nn2c(-c3ccc(Cl)c(Cl)c3)ccnc2c1-c1nc2cc(C(F)(F)F)cnc2n1C [Compound 104, 2-(7-(3,4-Dichlorophenyl)-2-(ethylsulfonyl)pyrazolo[1,5-a]pyrimidin-3-yl)-3-methyl-6-(trifluoromethyl)-3H-imidazo[4,5-b]pyridine] | > 70% | > 70% | – | – | > 70%
16 | CCS(=O)(=O)c1nn2c(-c3ccc(Cl)c(F)c3)ccnc2c1-c1nc2cc(C(F)(F)F)cnc2n1C [Compound 118, 2-(7-(4-Chloro-3-fluorophenyl)-2-(ethylsulfonyl)pyrazolo[1,5-a]pyrimidin-3-yl)-3-methyl-6-(trifluoromethyl)-3H-imidazo[4,5-b]pyridine] | > 70% | – | – | > 70% | > 70%
17 | CCSc1nn2c(-c3ccc(Cl)c(F)c3)ccnc2c1-c1nc2cc(C(F)(F)F)ncc2n1C [Compound 119, 2-(7-(4-Chloro-3-fluorophenyl)-2-(ethylthio)pyrazolo[1,5-a]pyrimidin-3-yl)-3-methyl-6-(trifluoromethyl)-3H-imidazo[4,5-c]pyridine] | > 70% | – | > 70% | – | –
18 | CCSc1nn2c(C)ccnc2c1-c1nc2cc(C(F)(F)F)cnc2n1C [Compound 131, 2-(2-(Ethylthio)-7-methylpyrazolo[1,5-a]pyrimidin-3-yl)-3-methyl-6-(trifluoromethyl)-3H-imidazo[4,5-b]pyridine] | > 70% | > 70% | – | – | –
